Data as given in patent US8552017B2, “2-amino-3-sulphonyl-tetrahydro-pyrazolo[1,5-A]pyrido-pyrimidine antagonists of serotonin 5-HT6 receptors, methods for the production and use thereof” (priority 2008, dated 2013).
Structures can show the parent of a compound that is named as a salt.

What was measured:
5-HT6 receptor [1] = target: T1, 5-HT6 receptor (Homo sapiens (Human), UniProt P50406); test: Antagonistic activity test towards 5-HT6 receptors (serotonin-induced intracellular cAMP, LANCE cAMP kit, HEK 293 cells); type: cell-based; settings: read-out: IC50 in the setting of functional assay
T1 sequence (P50406 whole entry): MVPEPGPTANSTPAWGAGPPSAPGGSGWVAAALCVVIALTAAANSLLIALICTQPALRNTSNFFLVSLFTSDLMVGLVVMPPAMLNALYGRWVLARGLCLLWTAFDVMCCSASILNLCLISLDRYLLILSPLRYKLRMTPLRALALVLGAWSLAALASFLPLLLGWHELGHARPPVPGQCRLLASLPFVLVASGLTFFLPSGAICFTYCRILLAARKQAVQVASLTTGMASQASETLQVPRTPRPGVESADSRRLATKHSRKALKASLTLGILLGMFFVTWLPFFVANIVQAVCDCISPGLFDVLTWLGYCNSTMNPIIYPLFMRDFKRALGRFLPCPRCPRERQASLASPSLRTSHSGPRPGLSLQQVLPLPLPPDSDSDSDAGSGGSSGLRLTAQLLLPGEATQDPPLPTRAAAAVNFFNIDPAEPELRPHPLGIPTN
Method: Antagonistic activity test of compounds of the general formulas 1 and 2 towards 5-HT6 receptors. Compounds of general formulas 1 and 2 were tested for their ability to prevent 5-HT6 receptors activation by serotonin. HEK 293 cells (kidney cells of human's embryo) with artificially expressed 5-HT6 receptor, activation of which by serotonin leads to increasing the concentration of intracellular cAMP were used. Intracellular cAMP content was determined using reagent kit LANCE cAMP (PerkinElmer) according to the method described by the manufacturer of the kit [http://las.perkinelmer.com/content/Manuals]. Effectiveness of compounds was estimated by their ability to reduce the content of intracellular cAMP induced by serotonin.

5-HT6 receptor [2] = target: T1, 5-HT6 receptor; test: Competitive radioligand binding ([3H] Lysergic acid diethylamide) to serotonin 5-HT6 receptors, HeLa cell membranes
Method: Screening of the disclosed compounds for their potential ability to interact with serotonin 5-HT6 receptors was carried out by the method of radioligand binding. For this purpose membrane species were prepared from HeLa cells expressing recombinant human 5-HT6 receptors, by means of cells homogenization in glass homogenizer with subsequent separation of plasmatic membranes from cell nucli, mitochondria's and cell wreckages by differential centrifugation. Determination of tested compounds binding to 5-HT6 receptors was carried out according to the method described in [Monsma F J Jr, Shen Y, Ward R P, Hamblin M W and Sibley D R, Cloning and expression of a novel serotonin receptor with high affinity for tricyclic psychotropic drugs. Mol Pharmacol. 43:320-327, 1993]. […] Methiothepin was used as a positive control. Binding of the tested compounds with the receptor was determined by their ability to displace the radioligand and was expressed in percent of displacement. The percent of displacement was calculated according to the following equation:
[formula] wherein: TA—was overall radioactivity in the presence of radioligand only, CA—was radioactivity in the presence of radioligand and tested compound and NA—was radioactivity in the presence of radioligand and Serotonin (5 μM).

Compound	IC50 (5-HT6 receptor [1]) [nM]	IC50 (5-HT6 receptor [2]; 1.5 nM [3H] Lysergic acid diethylamide) [nM]	Ki (5-HT6 receptor [2]; Ki=IC50/(1+[L]/KD)) [nM]
CNc1nn2c3c(cnc2c1S(=O)(=O)c1ccccc1)CN(C)CC3 [1.1(3), 2-methylamino-7-methyl-3-phenylsulfonyl-6,7,8,9-tetrahydropyrazolo[1,5-a]pyrido[4,3-e]pyrimidine]	29.7		
CNc1nn2c3c(c(C)nc2c1S(=O)(=O)c1ccccc1)CN(C)CC3 [1.1(4)•HCl]		1.48	0.685
